{"source": "paper PMC6411751", "about": "“Use of machine learning to identify novel, behaviorally active antagonists of the insect odorant receptor co-receptor (Orco) subunit” (Scientific Reports, 2019)", "key": {"D. melanogaster larvae": {"system": "D. melanogaster larvae", "experiment": "Larval chemotaxis assay (attraction to ethyl acetate)", "type": "in vivo, Drosophila melanogaster", "conditions": "for larval preference, compound alone vs. mineral oil vehicle: 10 µL of 100 mM on plate filter", "experimental": "We have previously provided a detailed description of these methods. Briefly, Canton-S (CS) flies were used as wild type (wt). The experimental chamber was a 100 × 15 mm polystyrene Petri dish (VWR) with 20 mL of 1.1% agarose coating the bottom. In this assay, 50 third-instar larvae were placed inside a “starting circle” at the center of the plate (the circle was drawn on the outside bottom of the plate). A line was also drawn that divided the plate in half. Small filter paper discs (d = 6 mm, Whatman Cellulose Filter Paper, # 1030 023) were placed on opposite sides of the plate (see Fig. 8A). Onto each filter paper disc was placed 10 μL of solution, containing either vehicle of dilution (mineral oil), odorant attractant (EA, diluted in mineral oil) or an Orco antagonist compound (diluted in mineral oil). The sides of the plate on which the compounds or vehicle were placed were alternated from experiment to experiment.\nIn order to test Orco antagonists for the ability to affect the chemotaxis assay, a large (d = 9 cm) filter paper (Whatman Filter Paper # D00161-S) was adhered with double-sided tape to the inside of the Petri dish lid. This allowed the larvae to be exposed to Orco antagonists in an airborne context. For light repulsion experiments, we used a Zeiss CL6000 LED light source at 76% intensity. Following the 5 min migratory period, plates were photographed, coded and then blind counted. Any larvae still within the starting circle or touching the center line were excluded from the analysis. A Response Index (RI) was calculated as RI = (S − C)/(S + C), where S is the number of larvae on the stimulus (EA) side and C is the number of larvae on the control (mineral oil) side. RI = 1 would indicate complete attraction, RI = −1 would indicate complete repulsion, and RI = 0 would indicate no preference. Statistical significance was assessed using a one-way analysis of the variance followed by Dunnett’s’s post-test."}, "fruit fly antennae": {"system": "fruit fly antennae", "experiment": "Electroantennogram (EAG) recordings in adult flies", "type": "in vivo, Drosophila melanogaster", "conditions": "for amplitude of EAG responses to EA and 2 H: adult flies", "source_text": "Adult flies (w1118 strain, 3–5 days old) were mounted in truncated pipette tips for detection of antennal responses[69],[70]. EAG data were obtained with an IDAC-232 (Syntech), which was linked to a computer via the EAGpro data acquisition interface. SSR data were acquired with an IDAC 4 and AutoSpike (Syntech). Recording and indifferent electrodes were made of silver/silver chloride wires enclosed in glass capillary needles, which were pulled with a Micropipette Puller (P-97, Sutter Instruments Co.) and filled with 1 M potassium chloride in 1% polyvinylpyrrolidone. The indifferent electrode was inserted in the eye of an immobilized fly, while the EAG recording electrode was placed on the third segment of the antenna under a S2X12 Olympus microscope and by using a micromanipulator MP-12 (Syntech). For SSR, the recording electrode was inserted into a desired sensillum under a stage microscope (BX51WI, Olympus) and using a Piezo Manipulator (PM10, World Precision Instrument). The stimulus delivery system consisted of a Stimulus Controller CS-55 (Syntech), which delivered charcoal-filtered, humidified air at 650 mL/min through a stimulus tube (5 cm long; internal diameter, 8 mm). The outlet of the stimulus delivery tube was set 1 cm away from the preparations. Stimulus pulses (0.5 sec) were introduced through a hole in the stimulus delivery tube 2.5 cm away from outlet. A compensatory flow was applied through another hole in the tube (directly across from the stimulus pulse hole). The total flow (continuous plus compensatory or continuous plus stimulus) of 0.6 mL/s was measured at the center of the outlet of the stimulus delivery tube with an Anemometer Lite (Model 6006, Kanomax, Osaka, Japan). 10 µL of the odorants EA and 2 H (freshly diluted to 0.01%, 0.1% or 1% in mineral oil) or the Orco antagonist compounds BMP and LF (freshly diluted to 1% or 50% in mineral oil) were loaded onto filter papers (1 cm^2). The filter papers containing odorants were placed inside of stimulus cartridges. Loading of odorant containing filter papers into the cartridges occurred in ambient air, which could contain trace amounts of odorants. Thus, stimulus pulses with ambient air (filter papers containing mineral oil alone) in the cartridges were used to define a baseline response. For EAG, filter papers containing BMP or LF (50% in mineral oil) were placed inside the main airflow tube 8 cm away from the antenna and odorants were delivered through a hole 2.5 cm away from the outlet. For SSR, BMP (1% in mineral oil) was delivered into the holes 2.5 cm away from the outlet, whereas the odorants were delivered upstream through a hole 4 cm away from the outlet. The different delivery arrangements may contribute to the difference in apparent BMP potency in the EAG and SSR experiments (Figs 6 and 7). Each filter paper was used 3–5 times before being replaced. CO2 was freshly collected into stimulus cartridge from the breath of the same subject (P.X.) and used only once. Spikes were manually counted 0.5 s before and 0.5 s after stimulus and the results presented as poststimulus number of spikes per 0.5 s (number of spikes after stimulus minus number of spikes prior to stimulus). Data were analyzed with One Way ANOVA using Prism 7 (GraphPad)."}, "[1]": {"system": "sham (water) injected oocytes", "experiment": "Application of Orco antagonists to sham (water) injected oocytes", "type": "cell-based, Xenopus laevis", "conditions": "3 mM", "experimental": "To measure antagonist activity at Orco, Agam\\Orco was activated by the Orco agonist OLC12[34]. Following two successive 60 sec applications of 30 μM OLC12, with 5 min washes between applications, each antagonist candidate was applied for 90 sec, immediately followed by a 60 sec co-application of antagonist candidate and OLC12. The 90 sec application of each compound alone (prior to co-application of the compound and OLC12) allowed us to ensure that antagonist candidate compounds were not causing non-specific effects on the oocytes that might confound the results. The current response to OLC12 in the presence of antagonist candidate was compared to the mean of the preceding two responses to OLC12 alone and presented as a percentage[34],[35]. This value was then normalized to the value obtained when the assay was run in the absence of antagonist candidate (sham).\nFigure S2. Applic a tion of Orco antagonists to s ha m (wa ter) injected oocytes.\nUp p e r tra ce, current recording from a sham (water) injected oocyte that was challenged with 60 sec applications of 100 µM an d 1 mM 3-isopropyl-6-methyl-ca t e ch o l (3 I6MC). Representative of recordings from 4 oocytes. Lo we r trace, current recording from a sham (water) injected oocyte that was challenged with 60 sec applications of 3 mM 2-tert-butyl-6-methylphenol (BMP) and linalyl formate (LF). Representative of recordings […]"}, "[2]": {"system": "ab2 sensilla (EA responsive OSN)", "experiment": "Single sensillum recording (SSR), ab2 sensilla, ethyl acetate response", "type": "in vivo, Drosophila melanogaster", "source_text": "(§1) Adult flies (w1118 strain, 3–5 days old) were mounted in truncated pipette tips for detection of antennal responses[69],[70]. EAG data were obtained with an IDAC-232 (Syntech), which was linked to a computer via the EAGpro data acquisition interface. SSR data were acquired with an IDAC 4 and AutoSpike (Syntech). Recording and indifferent electrodes were made of silver/silver chloride wires enclosed in glass capillary needles, which were pulled with a Micropipette Puller (P-97, Sutter Instruments Co.) and filled with 1 M potassium chloride in 1% polyvinylpyrrolidone. The indifferent electrode was inserted in the eye of an immobilized fly, while the EAG recording electrode was placed on the third segment of the antenna under a S2X12 Olympus microscope and by using a micromanipulator MP-12 (Syntech). […] The total flow (continuous plus compensatory or continuous plus stimulus) of 0.6 mL/s was measured at the center of the outlet of the stimulus delivery tube with an Anemometer Lite (Model 6006, Kanomax, Osaka, Japan). […] Spikes were manually counted 0.5 s before and 0.5 s after stimulus and the results presented as poststimulus number of spikes per 0.5 s (number of spikes after stimulus minus number of spikes prior to stimulus). Data were analyzed with One Way ANOVA using Prism 7 (GraphPad)."}, "[3]": {"system": "ab1 sensilla (CO2 responsive OSN, Gr21 and Gr63a)", "experiment": "Single sensillum recording (SSR), ab1 sensilla, CO2 response", "type": "in vivo, Drosophila melanogaster", "conditions": "10 µL of 1% compound in mineral oil", "source_text": "as §1"}, "[4]": {"conditions": "10 µL of 50% compound in mineral oil in main airflow"}}, "note": "Counter-ions that a name gives are not always drawn.", "data": [{"smiles": "C=CC(C)(CCC=C(C)C)OC=O", "note": "(centres unmarked) [LF, linalyl formate]", "values": [{"measurement": "larval attraction to EA with airborne compound", "setting": "D. melanogaster larvae; 30 mM on lid filter", "result": "significantly reduce larval attraction to EA"}, {"measurement": "larval preference, compound alone vs. mineral oil vehicle", "setting": "D. melanogaster larvae", "result": "displayed no preference"}, {"measurement": "larval attraction to EA with airborne compound", "setting": "D. melanogaster larvae; 685 µL of 100 mM on lid filter", "result": "completely abolished larval attraction to EA"}, {"measurement": "amplitude of EAG responses to EA and 2 H", "setting": "fruit fly antennae; [4]", "result": "did not alter the amplitude"}, {"measurement": "non-specific effects on sham (water) injected oocytes", "setting": "[1]", "result": "Neither BMP or LF exerted any non-specific effects"}]}, {"smiles": "Cc1cccc(C(C)(C)C)c1O", "note": "[BMP, 2-tert-butyl-6-methylphenol]", "values": [{"measurement": "SSR response of ab2 sensilla to EA", "setting": "[2]; 10 µL of 1% compound in mineral oil, 0.1% EA", "result": "abolished the response"}, {"measurement": "reversibility of effect on ab2 EA response", "setting": "[2]; subsequent response to EA alone", "result": "reversible"}, {"measurement": "larval attraction to EA with airborne compound", "setting": "D. melanogaster larvae; 30 mM on lid filter", "result": "did not significantly affect attraction to EA"}, {"measurement": "larval preference, compound alone vs. mineral oil vehicle", "setting": "D. melanogaster larvae", "result": "displayed no preference"}, {"measurement": "larval attraction to EA with airborne compound", "setting": "D. melanogaster larvae; 685 µL of 100 mM on lid filter", "result": "completely abolished larval attraction to EA"}, {"measurement": "baseline EAG response to ambient air", "setting": "fruit fly antennae; [4]", "result": "significantly reduced the baseline response"}, {"measurement": "amplitude of EAG responses to EA and 2 H", "setting": "fruit fly antennae; [4]", "result": "significantly reduced the amplitude"}, {"measurement": "extent of inhibition of EAG responses across 0.01%, 0.1%, 1% 2H", "setting": "fruit fly antennae; 50% BMP in main airflow, n = 3", "result": "did not differ"}, {"measurement": "extent of inhibition of EAG responses across 0.01%, 0.1%, 1% EA", "setting": "fruit fly antennae; 50% BMP in main airflow, n = 3", "result": "did not differ"}, {"measurement": "odorant agonist activity in EAG", "setting": "fruit fly antennae; compound alone", "result": "did not act as an odorant agonist"}, {"measurement": "non-specific effects on sham (water) injected oocytes", "setting": "[1]", "result": "Neither BMP or LF exerted any non-specific effects"}, {"measurement": "SSR response of ab1 sensilla to CO2", "setting": "[3]", "result": "had no effect on the CO2 response"}]}]}
